From patent publication US20240261417A1, “SOS1 DEGRADING AGENT AND PREPARATION METHOD THEREFOR AND APPLICATION THEREOF” (SHANGHAI LEADINGTAC PHARMACEUTICAL CO. LTD., priority 2021, published 2024)

Target: T1, SOS1 protein (Homo sapiens, UniProt Q07889)
T1 sequence (Q07889 1-1333): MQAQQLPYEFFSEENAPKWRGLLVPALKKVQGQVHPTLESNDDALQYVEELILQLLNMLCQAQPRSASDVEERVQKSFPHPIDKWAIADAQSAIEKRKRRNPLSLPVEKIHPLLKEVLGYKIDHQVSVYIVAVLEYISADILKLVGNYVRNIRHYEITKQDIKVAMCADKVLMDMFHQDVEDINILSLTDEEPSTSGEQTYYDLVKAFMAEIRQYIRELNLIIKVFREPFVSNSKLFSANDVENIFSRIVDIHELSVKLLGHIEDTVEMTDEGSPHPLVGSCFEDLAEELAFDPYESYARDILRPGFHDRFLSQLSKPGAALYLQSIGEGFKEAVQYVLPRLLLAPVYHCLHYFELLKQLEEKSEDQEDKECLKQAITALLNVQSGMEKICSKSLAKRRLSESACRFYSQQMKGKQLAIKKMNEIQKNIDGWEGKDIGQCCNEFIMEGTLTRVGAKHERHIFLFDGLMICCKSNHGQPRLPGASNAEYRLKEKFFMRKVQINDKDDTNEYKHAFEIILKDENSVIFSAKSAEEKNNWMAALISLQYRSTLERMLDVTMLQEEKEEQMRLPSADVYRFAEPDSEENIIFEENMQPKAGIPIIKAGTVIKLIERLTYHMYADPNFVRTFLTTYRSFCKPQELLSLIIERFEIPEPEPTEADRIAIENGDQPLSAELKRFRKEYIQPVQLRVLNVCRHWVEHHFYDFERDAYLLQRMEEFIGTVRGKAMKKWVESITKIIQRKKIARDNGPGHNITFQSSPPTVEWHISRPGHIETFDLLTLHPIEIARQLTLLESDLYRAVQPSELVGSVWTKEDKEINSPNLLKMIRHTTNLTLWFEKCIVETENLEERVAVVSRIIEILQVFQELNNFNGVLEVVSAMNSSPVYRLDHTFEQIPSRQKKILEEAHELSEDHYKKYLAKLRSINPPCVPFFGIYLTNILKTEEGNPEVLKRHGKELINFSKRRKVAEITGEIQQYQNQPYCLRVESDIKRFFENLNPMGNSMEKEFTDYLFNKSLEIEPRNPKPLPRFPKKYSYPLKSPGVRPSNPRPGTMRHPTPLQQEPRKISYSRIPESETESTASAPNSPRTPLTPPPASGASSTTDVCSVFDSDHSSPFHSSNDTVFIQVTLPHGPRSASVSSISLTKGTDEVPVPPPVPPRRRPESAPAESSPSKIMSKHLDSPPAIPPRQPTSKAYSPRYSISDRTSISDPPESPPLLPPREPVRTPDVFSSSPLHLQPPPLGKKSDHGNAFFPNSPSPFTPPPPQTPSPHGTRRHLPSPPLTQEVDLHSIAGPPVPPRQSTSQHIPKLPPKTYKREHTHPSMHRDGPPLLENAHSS
Assay: SOS1 degradation assay (Western blot), A-427 cells
Format: cell-based
Design: host or cells: A-427 (human cancer cell lines)
Settings: 24 h; for DC50: read-out: A427 (G12D) DC50; for Dmax: read-out: A427 (G12D) Dmax
Method: The specific procedures were as follows:
0.95 mL of cells were seeded into each well of a 24-well cell culture plate to achieve a cell density of 5×10^5 cells/well; the cell plate was incubated in an incubator at 37° C. with 5% CO2 overnight. Then 50 μL of the compound solution after dilution was added to each of the wells with the corresponding cells, so that the final concentration of the compound was in a range of 0.03-3000 nM. […] After dosing, the cell plate was incubated in an incubator at 37° C. with 5% CO2 for 24 h. […] After the plate was left to stand on ice for 30 min, the protein lysate in each well was transferred to a 1.5 mL centrifuge tube and centrifuged at 15000 g for 20 min at 4° C. The cell lysate supernatant after centrifugation was cryopreserved at −80° C. for testing and was used for determining the degradation level of the SOS1 protein by a WB method. The concentration of total protein in the cell lysate supernatant was determined using the BCA Protein Quantification Kit (Tiangen, PA115-02).
The concentration of total protein in the cell lysate was determined by BCA. The total protein was adjusted to 0.5 μg/μL with PBS and 5× SDS-PAGE protein loading buffer (Beyotime, P0015L), incubated in a water bath at 100° C. for 15 min, incubated in an ice bath on ice for 5 min, centrifuged at 14000 g for 1 min at 4° C., and mixed well as a loading sample for WB. Protein electrophoresis was performed on a precast gel (KeyGEN, KGMGO10W15) with a loading volume of 10 μL (total protein: 5 μg) using a Tris-MOPS-SDS running solution (Adamas, P1598253) at a constant voltage of 120 V for 55 min. After the electrophoresis, the protein on the gel strip was transferred to a PVDF membrane at a constant current of 250 mA for 65 min. After the membrane transfer, the membrane was incubated in 1× QuickBlock blocking buffer (Beyotime, P0235) for 30 min at room temperature. […] The protein map was subjected to gray value analysis by the chemiluminescence imaging system from Clinx. […] Then the degradation rate was calculated by comparing the gray correction value with the gray correction value of the control group. Then nonlinear curve fitting was performed by GraphPad Prism 8 in the logarithmic concentration-inhibition rate to obtain the DC50 and Dmax values of the compounds.

| SMILES | DC50 [nM] | Dmax [%] |
| --- | --- | --- |
| COc1cc2nc(C)nc(N[C@H](C)c3cc(N)cc(C(F)(F)F)c3)c2cc1[C@H]1CC[C@H](C(=O)N2CCC(CCOCC3CCN(C(=O)c4ccc(Cl)c(N5CCC(=O)NC5=O)c4)CC3)CC2)CC1 [Example 19, 1-(5-(4-((2-(1-((1R,4R)-4-(4-(((R)-1-(3-amino-5-(trifluoromethyl)phenyl)ethyl)amino)-7-methoxy-2-methylquinazolin-6-yl)cyclohexane-1-carbonyl)piperidin-4-yl)ethoxy)methyl)piperidine-1-carbonyl)-2-chlorophenyl)dihydropyrimidine-2,4(1H,3H)-dione] | < 50 | 50 to 80 |
| COc1cc2nc(C)nc(N[C@H](C)c3cc(N)cc(C(F)(F)F)c3)c2cc1[C@H]1CC[C@H](C(=O)N2CCN(CC3CCC4(CC3)CCN(C(=O)c3ccc(Cl)c(N5CCC(=O)NC5=O)c3)CC4)CC2)CC1 [Example 2, 1-(5-(9-((4-((1R,4R)-4-(4-(((R)-1-(3-amino-5-(trifluoromethyl)phenyl)ethyl)amino)-7-methoxy-2-methylquinazolin-6-yl)cyclohexane-1-carbonyl)piperazin-1-yl)methyl)-3-azaspiro[5.5]undecane-3-carbonyl)-2-chlorophenyl)dihydropyrimidine-2,4(1H,3H)-dione] | < 50 | 80 to 100 |
| CNCc1ccccc1-c1csc([C@@H](C)Nc2nc(C)nc3cc(OC)c([C@H]4CC[C@H](C(=O)N5CCN(CC6CCC7(CC6)CCN(C(=O)c6ccc(OC)c(N8CCC(=O)NC8=O)c6)CC7)CC5)CC4)cc23)c1 [Example 73, 1-(2-methoxy-5-(9-((4-((1R,4R)-4-(7-methoxy-2-methyl-4-(((R)-1-(4-(2-((methylamino)methyl)phenyl)thien-2-yl)ethyl)amino)quinazolin-6-yl)cyclohexane-1-carbonyl)piperazin-1-yl)methyl)-3-azaspiro[5.5]undecane-3-carbonyl)phenyl)dihydropyrimidine-2,4(1H,3H)-dione] | < 50 | 80 to 100 |
| COc1cc2nc(C)nc(N[C@H](C)c3cccc4c3CCS4(=O)=O)c2cc1[C@H]1CC[C@H](C(=O)N2CCN(CC3CCC4(CC3)CCN(C(=O)c3ccc(Cl)c(N5CCC(=O)NC5=O)c3)CC4)CC2)CC1 [Example 10, 1-(2-chloro-5-(9-((4-((1R,4R)-4-(4-(((R)-1-(1,1-dioxo-2,3-dihydrobenzo[b]thiophen-4-yl)ethyl)amino)-7-methoxy-2-methylquinazolin-6-yl)cyclohexane-1-carbonyl)piperazin-1-yl)methyl)-3-azaspiro[5.5]undecane-3-carbonyl)phenyl)dihydropyrimidine-2,4(1H,3H)-dione] | < 50 | 80 to 100 |
| COc1cc2nc(C)nc(N[C@H](C)c3cc(N)cc(C(F)(F)F)c3)c2cc1[C@H]1CC[C@H](C(=O)N2CCN(CCOCC3CCN(C(=O)c4ccc(Cl)c(N5CCC(=O)NC5=O)c4)CC3)CC2)CC1 [Example 33, 1-(5-(4-((2-(4-((1R,4R)-4-(4-(((R)-1-(3-amino-5-(trifluoromethyl)phenyl)ethyl)amino)-7-methoxy-2-methylquinazolin-6-yl)cyclohexane-1-carbonyl)piperazin-1-yl)ethoxy)methyl)piperidine-1-carbonyl)-2-chlorophenyl)dihydropyrimidine-2,4(1H,3H)-dione] | < 50 | 80 to 100 |
| COc1cc2nc(C)nc(N[C@H](C)c3cc(N)cc(C(F)(F)F)c3)c2cc1[C@H]1CC[C@H](C(=O)N2CCN(CCC3CCC4(CC3)CCN(C(=O)c3ccc(Cl)c(N5CCC(=O)NC5=O)c3)CC4)CC2)CC1 [Example 1, 1-(5-(9-(2-(4-((1R,4R)-4-(4-(((R)-1-(3-amino-5-(trifluoromethyl)phenyl)ethyl)amino)-7-methoxy-2-methylquinazolin-6-yl)cyclohexane-1-carbonyl)piperazin-1-yl)ethyl)-3-azaspiro[5.5]undecane-3-carbonyl)-2-chlorophenyl)dihydropyrimidine-2,4(1H,3H)-dione] | < 50 | 80 to 100 |
